The test has as its system CEM cells HIV-1 protection, formazan growth assay. The test is described as follows: NCI AIDS Antiviral Assay. Conditions: for IC50: measured here: growth of uninfected CEM cells. The method, boiled down:
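Protection of CEM cells against HIV-1 was scored from cell growth (soluble formazan) across five concentrations, with parallel uninfected cells. Lack of protection may reflect toxicity.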

The record followed here is PubChem BioAssay AID179 (DTP/NCI, 2004).

Activity calls are given as the source filed them.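 The calls were made as follows: active = compounds giving half or more protection of infected cells from virus-caused growth loss, again on retest; inactive = the rest.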

Turning to `COc1ccc2occ(CCC(=O)O)c2c1`, the outcome was inactive.
Regarding `O=C(/C=C/c1ccc(OCC(=O)N2CCN(c3ccccc3)CC2)cc1)c1ccccc1`, the EC50 (in general, the concentration at which the effect is half-maximal) was over 23.4 µM and the IC50 (as a rule, the midpoint of a concentration-inhibition curve) was over 23.4 µM.
Consider `CC1=C(C)SC(=C2Sc3c(n(C)c(=O)[nH]c3=O)S2)S1`, for which the EC50 was over 200 µM and the IC50 was over 200 µM.
Consider `Clc1ccc(OCC(COc2ccccc2)Oc2nc(-c3ccccc3)nc(-c3ccccc3)n2)cc1` (stereo not drawn), for which the EC50 was over 3.89 µM and the IC50 was over 3.89 µM.
In the case of `CC(C)(C)OC(=O)NCC(=O)NC1C/C(=N\O)c2sccc21` (stereo not drawn), the EC50 was over 200 µM and the IC50 is over 200 µM.
In the case of `OC1C2CCC1C1C3C=CC(C3)C21` (stereo not drawn), the result was inactive.
For `COC(=O)CC1(CNC(=O)OCc2ccccc2)OCCO1`, the EC50 was over 200 µM and the IC50 was over 200 µM.
In the case of `O=c1[nH]c(=O)n(C2CC(O)C(CO)O2)c2nc3cc4ccccc4cc3nc12` (stereo not drawn), the EC50 is over 200 µM and the 50% inhibitory concentration (IC50) was over 200 µM.
`CC(C)(CCl)NC(=O)c1cccc(C(=O)NC(C)(C)CCl)n1`: the EC50 was over 28.8 µM and the 50% inhibitory concentration (IC50) is over 28.8 µM.
`Cc1c(=O)n(O)c2ccccc2[n+]1[O-]`: the EC50 is over 200 µM and the IC50 was over 200 µM.
As for `O=c1[nH]nc(Cc2ccccc2)n1/N=C\CC/C=N\n1c(Cc2ccccc2)n[nH]c1=O`, the EC50 is over 200 µM and the concentration for half-maximal inhibition (IC50) worked out at 37.2 µM.
Turning to `CN1Cc2c(N)cccc2C(c2ccccc2)C1` (stereo not drawn), the outcome was inactive.
Consider `N#C/C(=C\c1ccc([N+](=O)[O-])cc1)C(=O)c1ccccc1`, for which the EC50 is over 45.7 µM and the 50% inhibitory concentration (IC50) was found to be 24.5 µM.
With `O=[N+]([O-])c1ccc(OP(=O)(Oc2ccc([N+](=O)[O-])cc2)OP(=O)(Oc2ccc([N+](=O)[O-])cc2)Oc2ccc([N+](=O)[O-])cc2)cc1`, the EC50 is over 200 µM and the IC50 is 50.1 µM.
Take `COC1=CC(=O)O/C1=C(\OC)C1OC1c1ccccc1` (stereo not drawn): the EC50 is 5.37 µM and the IC50 turned out to be 97.7 µM.
For the molecule `O=C(O/C=C\OC1CCCC1(c1ccccc1)c1ccccc1)c1ccccc1` (stereo not drawn), the EC50 was over 200 µM and the half-inhibitory concentration (IC50) amounted to 3.8 µM.
In the case of `COC1C(C)OC(OC2CC(C)(O)Cc3cc4c(c(O)c32)C(=O)c2c(O)cc3c(c2C4=O)OC2OC3(C)C(O)C(N(C)C)C2O)C(OC)C1(C)OC` (stereo not drawn), the outcome was inactive.
Take `COc1cc(C2SCC(=O)N2c2ccc(-c3ccc(-n4c(-c5ccccc5)nc5ccccc5c4=O)cc3)cc2)cc(OC)c1OC` (stereo not drawn): the EC50 was over 200 µM and the IC50 was found to be 14.8 µM.
`C=CC(=O)N1C/C(=C\c2ccc([N+](=O)[O-])cc2)C(=O)/C(=C/c2ccc([N+](=O)[O-])cc2)C1` displayed a half-maximal effective concentration (EC50) of over 200 µM and a 50% inhibitory concentration (IC50) of 0.0631 µM.
The corresponding values for `Cn1c(=O)[nH]n(-c2ccc3ccccc3c2)c1=O` are over 200 µM and over 200 µM.
The corresponding values for `CN1c2c(C(=O)Nc3nccs3)nn(-c3ccccc3)c2-c2ccccc2S1(=O)=O` are over 22.9 µM and over 22.9 µM.
The like results for `O=C(O)c1cc(N=Nc2ccc(/C=C/c3ccc(N=Nc4cc(C(=O)O)c(O)c5ccccc45)cc3S(=O)(=O)O)c(S(=O)(=O)O)c2)c2ccccc2c1O` were, in that order, 46.8 µM and 72.4 µM.
Take `COc1cc2c(cc1OC)/C(=C/c1ccc(N(C)C)cc1)C=C2`: the EC50 is over 17 µM and the 50% inhibitory concentration (IC50) was over 17 µM.
Consider `C=C(C)CNC(=S)N(N)c1ccc2ccccc2c1`, for which the EC50 was over 200 µM and the IC50 amounted to 58.9 µM.
The corresponding values for `CCOP(=O)(OCC)OCCOCCOP(=O)(OCC)OCC` are over 200 µM and over 200 µM.
With `COc1cc2ccccc2cc/c1=N\O`, the EC50 is over 200 µM and the IC50 is 41.7 µM.
For `COc1ccc(N=C2[Se]C(=NC(=O)c3ccccc3)N(c3ccc(OC)cc3)C2=Nc2ccc(OC)cc2)cc1`, the EC50 was over 200 µM and the IC50 was determined as 102 µM.
Consider `O=C(C=P(c1ccccc1)(c1ccccc1)c1ccccc1)C12CC3CC(CC(C3)C1)C2`, for which the EC50 is over 100 µM and the IC50 turned out to be 6.61 µM.
Take `CCOC(=O)C(NC(=O)c1ccccc1)(N1CCN(c2cc3c(cc2F)c(=O)c(C(=O)O)cn3C2CC2)CC1)C(F)(F)F` (stereo not drawn): the EC50 is over 200 µM and the half-maximal inhibitory concentration (IC50) worked out at 20.4 µM.
Take `CCOC(=O)c1nc2ccc([N+](=O)[O-])cc2c2c1CCO2`: the EC50 is over 63.1 µM and the IC50 was over 63.1 µM.
For `CC(O)[C@@]1(c2ccccc2)CC2(CCN(C)CC2)O[C@H]1C` (stereo partly drawn), the EC50 is over 200 µM and the half-maximal inhibitory concentration (IC50) is over 200 µM.
Consider `COc1cc(/C=C/C(=O)c2ccc(O)c(OC)c2)ccc1O`, for which the EC50 was over 200 µM and the half-maximal inhibitory concentration (IC50) stood at 11.5 µM.
As for `CC(=O)OCC1OC(NC(=S)CCSc2nc3ccccc3c(=O)n2-c2ccccc2)C(OC(C)=O)C(OC(C)=O)C1OC(C)=O` (stereo not drawn), the EC50 was over 200 µM and the IC50 worked out at 28.2 µM.
For `Cn1c(=O)c2ccccc2c2nc3ccccc3nc21`, the result was inactive.
Turning to `[N-]=[N+]=C(S(=O)(=O)O)S(=O)(=O)O`, the EC50 was over 200 µM and the half-maximal inhibitory concentration (IC50) was over 200 µM.
On to `OCC12C3C4C5C3C1C5C42` (stereo not drawn), for which the EC50 is over 200 µM and the IC50 is over 200 µM.
Take `CCOc1ccncc1[N+](=O)[O-]`: the EC50 is over 200 µM and the IC50 was over 200 µM.
`CCOc1ccc(/C=N/[N+](C)(C)C)cc1OCC`: the EC50 was over 200 µM and the IC50 was over 200 µM.
Regarding `Cc1ccc(N(C=O)c2c([N+](=O)[O-])cc([N+](=O)[O-])c3c2=[N+]([O-])CN=3)cc1`, the EC50 was over 7.59 µM and the IC50 is over 7.59 µM.
For the molecule `O=C(O)CCCCCCCCCCCI`, the EC50 was 27.5 µM and the IC50 was found to be 110 µM.
Take `O=C(/C=C/c1ccccc1)/C=C/c1ccccc1`: the result was inactive.
For the molecule `Clc1ccc(/C=N/N=C(N/N=C/c2ccc(Cl)cc2Cl)N/N=C/c2ccc(Cl)cc2Cl)c(Cl)c1`, the EC50 was over 100 µM and the IC50 was over 100 µM.
`C=CC[C@@]12CC(C=CC13OCCO3)OC(O)[C@@H]2C` (stereo partly drawn): the EC50 was over 200 µM and the IC50 amounted to 145 µM.
The like results for `O=C(Nc1cc2c(oc1=O)CCCCCC2)c1cnccn1` were, in that order, over 50.1 µM and over 50.1 µM.
In the case of `O=C(CC(=O)c1cccc2ccccc12)C(=O)NC1C2CC3CC(C2)CC1C3` (stereo not drawn), the result was inactive.
On to `COc1cccc2nc3cc(C)c(C)cc3nc12`, for which the EC50 is over 30.2 µM and the concentration for half-maximal inhibition (IC50) is over 30.2 µM.
Take `Cc1cc2c(c(C(=O)NCC(=O)N[C@@H](C)C(=O)OCc3ccccc3)c1)Oc1c(cc(C)cc1C(=O)NCC(=O)N[C@@H](C)C(=O)OCc1ccccc1)S2`: the EC50 was over 200 µM and the IC50 was 7.76 µM.
In the case of `O=c1[nH][nH]c2c1SCc1ccccc1-2`, the EC50 was over 955 µM and the IC50 turned out to be 468 µM.
As for `CC1(C)NC(=S)NC1=O`, the EC50 is over 200 µM and the 50% inhibitory concentration (IC50) was over 200 µM.
Turning to `Cc1cccc(C)c1NC(=O)C(C#N)C1=C(Cl)C(=O)c2ccccc2C1=O` (stereo not drawn), the EC50 was over 26.3 µM and the IC50 is 8.71 µM.
Consider `Cc1cc(=O)[nH]c(NN2C(Cl)C(=O)C2c2ccc(O)cc2)n1` (stereo not drawn), for which the EC50 was over 42.7 µM and the 50% inhibitory concentration (IC50) turned out to be 6.76 µM.
Regarding `O=C(O)Cc1ccccc1CCc1ccccc1Cl`, the EC50 was over 479 µM and the IC50 worked out at 251 µM.
Turning to `COc1ccc(-c2c3c(nc4nc(SC)nc(SC)c24)CCCC3)cc1OC`, the EC50 was over 100 µM and the IC50 is 81.3 µM.
As for `CC/C(CC(=O)CCC(=O)Nc1ccccc1[N+](=O)[O-])=N/NC(=O)C[n+]1ccccc1`, the EC50 is over 25.7 µM and the half-inhibitory concentration (IC50) was over 25.7 µM.
With `CCn1c2ccccc2c2ccc3c(c21)C(=O)c1ccccc1C3=O`, the EC50 is over 3.24 µM and the IC50 is over 3.24 µM.
For the molecule `N#Cc1cc2c(N)ncnc2nc1N1CCCC1`, the EC50 was over 200 µM and the IC50 was found to be 191 µM.
As for `OC1CCOC1(O)c1ccccn1` (stereo not drawn), the EC50 was over 200 µM and the 50% inhibitory concentration (IC50) was over 200 µM.
As to `c1ccc2c(c1)SC1Sc3ccccc3[S+]21` (stereo not drawn), the EC50 was over 200 µM and the IC50 was 11.5 µM.
The corresponding values for `CC(C)N(C(C)C)P(=O)(OP(=O)(c1ccc([N+](=O)[O-])cc1)N(C(C)C)C(C)C)c1ccc([N+](=O)[O-])cc1` (stereo not drawn) are over 200 µM and 151 µM.
Take `CC1=NNB(O)c2sccc21`: the EC50 is over 562 µM and the concentration for half-maximal inhibition (IC50) stood at 145 µM.
Regarding `CCOC(=O)C(Sc1ccccc1)c1c(OC)cc(=O)oc1/C=[N+](/[O-])c1ccc(N(C)C)cc1` (stereo not drawn), the result was inactive.
`CCC(CCCN)Nc1cc(OC)cc2c(C)ccnc12` (stereo not drawn): the EC50 was over 200 µM and the IC50 was 7.41 µM.
Consider `O=C(/C=C\c1ccc(Cl)c(Cl)c1)c1cccs1`, for which the EC50 was over 200 µM and the half-maximal inhibitory concentration (IC50) was found to be 10.2 µM.
Consider `Cn1cc(-c2ccc(CCOC3CCCCO3)cc2)c2c(C#N)cccc21` (stereo not drawn), for which the EC50 is over 200 µM and the concentration for half-maximal inhibition (IC50) is 38.9 µM.
The like results for `CN(C)c1ccc(C2=NC(=S)NC(c3cc(Cl)ccc3O)C2)cc1` (stereo not drawn) were, in that order, over 200 µM and 30.2 µM.
As for `O=C(/C=C\c1ccc(/C=C/C(=O)Nc2cccc(C3=NCCCN3)c2)cc1)Nc1cccc(C2=NCCCN2)c1`, the EC50 is over 44.7 µM and the concentration for half-maximal inhibition (IC50) is 8.13 µM.
As to `CCC1CN2CCc3cc(OC)c(OC)cc3C2CC1CC1c2cc(OC)c(OC)cc2CCN1C(=O)C(N)Cc1ccccc1` (stereo not drawn), the result was inactive.
`COC(=O)CCCC=C(c1cc(C)c(OC)c(Br)c1)c1cc(C)c(OC)c(Br)c1`: the EC50 was over 200 µM and the half-inhibitory concentration (IC50) is 39.8 µM.
For `CCOC(=O)C(C(CC(=O)OC)NC(=O)OCc1ccccc1)C1(C)OCCO1` (stereo not drawn), the EC50 is over 251 µM and the IC50 was over 251 µM.
Turning to `Cc1cc(-c2ccc(N=Nc3cc(S(=O)(=O)O)c4cccnc4c3O)c(C)c2)ccc1N=Nc1cc(S(=O)(=O)O)c2cccnc2c1O`, the EC50 was 60.3 µM and the IC50 turned out to be 85.1 µM.
For `CC(=O)C(CN(C(C)C)C(C)C)C(c1ccccc1)c1c(O)c2ccccc2oc1=O` (stereo not drawn), the EC50 is over 85.1 µM and the IC50 is 75.9 µM.
